The results in this text go back to ChEMBL document CHEMBL1136428, “Structure-activity relationships of novel anti-malarial agents. Part 6: N-(4-arylpropionylamino-3-benzoylphenyl)-[5-(4-nitrophenyl)-2-furyl]acrylic acid amides” (Bioorg Med Chem Lett, 2003).

The test system of the test is Plasmodium falciparum. Description: Anti-malarial activity against Plasmodium falciparum Dd2. It counts as functional, organism-based.

One may read the IC50 as the point on the concentration scale where inhibition reaches its midpoint. In the case of `O=C(/C=C/c1ccc(-c2ccc([N+](=O)[O-])cc2)o1)Nc1ccc(NC(=O)CCc2ccc(Cl)cc2)c(C(=O)c2ccccc2)c1`, the IC50 came out at 130 nM. For `O=C(/C=C/c1ccc(-c2ccc([N+](=O)[O-])cc2)o1)Nc1ccc(NC(=O)CCc2ccc(F)cc2)c(C(=O)c2ccccc2)c1` the value was 440 nM; for `O=C(/C=C/c1ccc(-c2ccc([N+](=O)[O-])cc2)o1)Nc1ccc(NC(=O)CCc2ccc([N+](=O)[O-])cc2)c(C(=O)c2ccccc2)c1`, 1400 nM; for `NC(Cc1ccc(C(F)(F)F)cc1)C(=O)Nc1ccc(NC(=O)/C=C/c2ccc(-c3ccc([N+](=O)[O-])cc3)o2)cc1C(=O)c1ccccc1` (configuration not stated), 710 nM. The value for `CC(C)(C)OC(=O)N[C@H](Cc1ccccc1)C(=O)Nc1ccc(NC(=O)/C=C/c2ccc(-c3ccc([N+](=O)[O-])cc3)o2)cc1C(=O)c1ccccc1` was 900 nM; that for `Cc1ccc(CCC(=O)Nc2ccc(NC(=O)/C=C/c3ccc(-c4ccc([N+](=O)[O-])cc4)o3)cc2C(=O)c2ccccc2)cc1` was 440 nM; that for `N[C@H](Cc1ccccc1)C(=O)Nc1ccc(NC(=O)/C=C/c2ccc(-c3ccc([N+](=O)[O-])cc3)o2)cc1C(=O)c1ccccc1` was 1200 nM.

`CC(C)(C)OC(=O)N[C@@H](Cc1ccccc1)C(=O)Nc1ccc(NC(=O)/C=C/c2ccc(-c3ccc([N+](=O)[O-])cc3)o2)cc1C(=O)c1ccccc1` gave an IC50 of 420 nM. For `O=C(/C=C/c1ccc(-c2ccc([N+](=O)[O-])cc2)o1)Nc1ccc(NC(=O)CCc2ccc(Br)cc2)c(C(=O)c2ccccc2)c1` the value was 170 nM; for `O=C(/C=C/c1ccc(-c2ccc([N+](=O)[O-])cc2)o1)Nc1ccc(NC(=O)CCc2ccc(O)cc2)c(C(=O)c2ccccc2)c1`, 3300 nM; for `O=C(/C=C/c1ccc(-c2ccc([N+](=O)[O-])cc2)o1)Nc1ccc(NC(=O)CCc2ccccc2)c(C(=O)c2ccccc2)c1`, 310 nM. For `CC(C)(C)OC(=O)NC(Cc1ccc(C(F)(F)F)cc1)C(=O)Nc1ccc(NC(=O)/C=C/c2ccc(-c3ccc([N+](=O)[O-])cc3)o2)cc1C(=O)c1ccccc1` (configuration not stated) the value was 3200 nM. For `COc1ccc(CCC(=O)Nc2ccc(NC(=O)/C=C/c3ccc(-c4ccc([N+](=O)[O-])cc4)o3)cc2C(=O)c2ccccc2)cc1`, the IC50 is 1300 nM.

As for `O=C(/C=C/c1ccc(-c2ccc([N+](=O)[O-])cc2)o1)Nc1ccc(NC(=O)CCc2ccccc2C(F)(F)F)c(C(=O)c2ccccc2)c1`, half-maximal inhibition (IC50) required 1100 nM. On to `N[C@@H](Cc1ccccc1)C(=O)Nc1ccc(NC(=O)/C=C/c2ccc(-c3ccc([N+](=O)[O-])cc3)o2)cc1C(=O)c1ccccc1`, for which the IC50 stood at 580 nM. On to `O=C(/C=C/c1ccc(-c2ccc([N+](=O)[O-])cc2)o1)Nc1ccc(NC(=O)CCc2ccc(C(F)(F)F)cc2)c(C(=O)c2ccccc2)c1`, for which the IC50 amounted to 61 nM. For `O=C(/C=C/c1ccc(-c2ccc([N+](=O)[O-])cc2)o1)Nc1ccc(NC(=O)CCc2cccc(C(F)(F)F)c2)c(C(=O)c2ccccc2)c1` the value was 630 nM.
